Laboratory results: patent publication US6524625B2, “Physiologically active extract obtained from indigo plant polygonum tinctorium” (Kabushiki Kaisha Hayashibara Seibutsu Kagaku Kenkyuto, priority 1998, dated 2003)
In brackets after ≈: the same amount, converted by molar mass.

Legend:
[1] = system: Helicobacter pylori (NCTC 11638); assay: Antiseptic action: MIC, agar plate dilution method; assay type: cell-based
[2] = system: Bacillus cereus (IFO 3466); assay: Antiseptic action: MIC, agar plate dilution method; assay type: cell-based; conditions: Bacillus cereus, IFO3466, read-out: Minimum inhibitory concentration
[3] = system: Pseudomonas aeruginosa (IFO 3453); assay: Antiseptic action: MIC, agar plate dilution method; assay type: cell-based; conditions: Pseudomonas aeruginosa, IFO3453, read-out: Minimum inhibitory concentration
[4] = system: Staphylococcus aureus (ATCC 6538P); assay: Antiseptic action: MIC, agar plate dilution method; assay type: cell-based; conditions: Staphylococcus aureus, ATCC6538P, read-out: Minimum inhibitory concentration
[5] = system: vesicular stomatitis virus (VSV); assay: microbe, parasite or virus in culture; assay type: cell-based; conditions: L929, 24 h, read-out: 50% Growth inhibitory concentration
HGC-27 cells = assay: Antitumor action: growth inhibition, methylene blue staining; assay type: cell-based; conditions: Homo sapiens, HGC-27, 48 h, read-out: 50% growth inhibitory concentration
Procedure: (§1) Solutions in each well were serially diluted with a fresh preparation of the same RPMI1640 medium (pH 7.2) as used in the above. […] Each cell suspension was distributed to a microplate in a volume of 50 μl/well and incubated at 37° C. for 48 hours in a 5 v/v % CO2 incubator. To each microplate, a 25 v/v % aqueous glutaraldehyde solution was added in a volume of 20 μl/well, and the microplate was allowed to stand for 15 min to fix the cells. Then, the cells adhered to the wells were washed with water, admixed with a 0.05 w/v % aqueous methylene blue solution in a volume of 100 μl/well, and further allowed to stand for 15 min to stain the cells. Thereafter, an excessive amount of the staining solution was removed from the wells by washing with water, and the cells were dried, admixed with 300 μl/well of 0.33 N hydrochloric acid, stirred sufficiently, and measured for absorption at a wavelength of 620 nm. In parallel, as a control, a system free of a test sample was provided and treated similarly as in the test samples. […]

HL-60 cells = assay: as above; assay type: cell-based; conditions: Homo sapiens, HL-60, 48 h, read-out: 50% growth inhibitory concentration
Procedure: as §1

HLC-1 cells = assay: as above; assay type: cell-based; conditions: Homo sapiens, 48 h, read-out: 50% growth inhibitory concentration
Procedure: as §1

C6 cells = assay: Apoptosis controlling action, propidium iodide flow cytometry; assay type: cell-based, rat; conditions: C6 cells (1 × 10^5 cells/ml)
Procedure: The solution was distributed to a microplate in one milliliter per well, and the solution in each well was diluted in series with a fresh preparation of the same medium as used in the above.
HL-60 cells, ATCC CCL-240, derived from a patient with acute promyelocytic leukemia; U-937 cells, ATCC CRL-1593.2, derived from a patient with human histiocytic lymphoma; HGC-27 cells, RCB0500, derived from a patient with gastric cancer; HLC-1 cells, RCB0083, derived from a patient with lung adenocarcinoma; and C6 cells, ATCC CCL-107, derived from rat glial tumor, were respectively suspended in RPMI1640 medium (pH 7.2) to give a cell density of 1×10^6 cells/ml or 2×10^5 cells/ml. To the microplate, containing a one milliliter dilution of 20, 10 or 5.0 μg/ml of Compound 1, was added one milliliter per well of either of the above cell suspensions and used for test systems. All the test systems were made duplex and respectively subjected to 24- and 48-hour incubations in a 5 v/v % CO2 incubator at 37° C. A system free of Compound 1 was provided and treated similarly as above and used for control.
According to the method by I. Nicoletti et al. in Journal of Immunological Methods, Vol. 139, pp. 271-279 (1991), the apoptosis-induced cells in the test systems and control were stained by propidium iodide and determined for the percentage of the stained cells to the total cells in such a manner that transferring each of the cultures to polypropylene tubes, centrifuging the tubes, removing the resulting supernatants, washing the cells' sediments with phosphate buffered saline containing 0.3 v/v % calf serum albumin, and further centrifuging the washed cells to remove supernatants. The newly formed sediments were respectively mixed with 50 μg/ml of propidium iodide commercialized by Sigma Chemical Company, St. Louis, Mo., USA, 0.1 w/v % sodium citrate, and0.1 w/v % “TRITON X-100”, a surfactant commercialized by Sigma Chemical Company, St. Louis, Mo., USA, in respective volumes of 1.5 ml to stain the cells by propidium iodide. The stained cells were stored at 4° C. in the dark overnight. The stained cells of each test system were analyzed on “EPICS PROFILE II”, a flow cytometry commercialized by Beckman Coulter, Inc., CA, USA. Based on the data the percentage of the stained cells to the total cells in each test system was measured for apoptosis occurrence.

[6] = system: HL-60 cells, HGC-27 cells, HLC-1 cells; assay: Antitumor action, comparison over the tumor cells of Table 10; assay type: cell-based, human; conditions: from the 50% growth inhibitory concentrations of Table 10
Description: Solutions in each well were serially diluted with a fresh preparation of the same RPMI1640 medium (pH 7.2) as used in the above.
HL-60 cells (ATCC CCL-240) derived from a patient with acute promyelocytic leukemia, HGC-27 cells (RCB0500) derived from a patient with gastric cancer, and HLC-1 cells (RCB0083) derived from a patient with lung adenocarcinoma were respectively suspended in fresh preparations of the same RPMI1640 medium (pH 7.2) as used in the above to give respective cell concentrations of 4×10^5 cells/ml, 4×10^5 cells/ml, and 2×10^6 cells/ml. Each cell suspension was distributed to a microplate in a volume of 50 μl/well and incubated at 37° C. for 48 hours in a 5 v/v % CO2 incubator. To each microplate, a 25 v/v % aqueous glutaraldehyde solution was added in a volume of 20 μl/well, and the microplate was allowed to stand for 15 min to fix the cells. Then, the cells adhered to the wells were washed with water, admixed with a 0.05 w/v % aqueous methylene blue solution in a volume of 100 μl/well, and further allowed to stand for 15 min to stain the cells. Thereafter, an excessive amount of the staining solution was removed from the wells by washing with water, and the cells were dried, admixed with 300 μl/well of 0.33 N hydrochloric acid, stirred sufficiently, and measured for absorption at a wavelength of 620 nm. […]

Structure (SMILES): O=C1c2ccccc2-n2c1nc1ccccc1c2=O [Compound 1, 6,12-dihydro-6,12-dioxoindolo[2,1-b]quinazoline]
- MIC ([1]; Helicobacter pylori, NCTC11638, read-out: Minimum inhibitory concentration): 2.5 µg/mL (≈ 10.1 µM)
- Inhibition of the growth of Helicobacter pylori (in words) ([1]; comment on Table 8): strongly inhibited the growth
- MIC [2]: 39 µg/mL (≈ 157 µM)
- MIC [3]: 39 µg/mL (≈ 157 µM)
- MIC [4]: 39 µg/mL (≈ 157 µM)
- IC50 [5]: 13 µg/mL (≈ 52.4 µM)
- IC50 (HGC-27 cells): 1.5 µg/mL (≈ 6.04 µM)
- IC50 (HL-60 cells): 4.2 µg/mL (≈ 16.9 µM)
- IC50 (HLC-1 cells): 2.2 µg/mL (≈ 8.86 µM)
- Apoptosis occurrence (C6 cells; 24 hours, 2.5 μg/ml, control 0.3): 15.9%
- Apoptosis occurrence (C6 cells; 24 hours, 5.0 μg/ml, control 0.3): 18.4%
- Apoptosis occurrence (C6 cells; 24 hours, 10 μg/ml, control 0.3): 27.6%
- Apoptosis occurrence (C6 cells; 48 hours, 2.5 μg/ml, control 0.4): 38.4%
- Apoptosis occurrence (C6 cells; 48 hours, 5.0 μg/ml, control 0.4): 64.8%
- Apoptosis occurrence (C6 cells; 48 hours, 10 μg/ml, control 0.4): 67.1%
- Antitumor action relative to Compound 2 [6]: ≥ 10 times
